According to PubChem BioAssay AID1259246 (Broad Institute, 2017):
Records with an inconclusive call do not appear. Activity calls are given as the source filed them.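 The calls were made as follows: active = valid dose-response fit whose half-maximal growth-inhibiting concentration is at or below a set limit above the top tested dose; inconclusive = flat fit with effect between 30 and 70%, or poor fit; inactive = half-maximal concentration above a set limit.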

Legend:
[1] = antibacterial activity against Clostridioides difficile – 10-point retest, dose response (AID 1259246); settings: Clostridioides difficile clinical isolate growth, OD600, 24 h
[2] = system: Clostridioides difficile clinical isolate growth, OD600, 24 h; test: as above

COc1cccc(C#Cc2ccc([C@H]3[C@@H](CO)N(C(=O)C4CCCCC4)[C@H]3C#N)cc2)c1
activity change, negative = inhibition ([1]; at 75 µM (top of the series)): 12.9% (inactive)
IC50 [2]: 77.8 µM

O=C(NCC[C@@H]1CC[C@H](NC(=O)C2CC2)[C@@H](CO)O1)Nc1ccc(C(F)(F)F)cc1
activity change, negative = inhibition ([1]; at 120 µM (top of the series)): 2.87% (inactive)
IC50 [2]: 8.56 µM

CC(C)Cc1ccc(CN2CC[C@@H](NS(=O)(=O)c3ccccc3)C2)cc1
activity change, negative = inhibition ([1]; at 60 µM (top of the series)): 4.46% (inactive)
IC50 [2]: 56 µM

CO[C@H]1CN(C)C(=O)c2ccc(NC(=O)Nc3cc(Cl)cc(Cl)c3)cc2OC[C@@H](C)NC[C@H]1C
activity change, negative = inhibition ([1]; at 120 µM (top of the series)): 23.1% (inactive)
IC50 [2]: 11.6 µM

O=C(NCC[C@H]1CC[C@@H](NC(=O)C2CC2)[C@H](CO)O1)Nc1ccc(C(F)(F)F)cc1
activity change, negative = inhibition ([1]; at 120 µM (top of the series)): -4.12% (inactive)
IC50 [2]: 13.5 µM

C[C@@H]1CN([C@@H](C)CO)C(=O)Cc2cc(NC(=O)CCCN(C)C)ccc2O[C@@H]1CN(C)Cc1ccc(-c2ccccc2)cc1
activity change, negative = inhibition ([1]; at 110 µM (top of the series)): 88.3% (inactive)
IC50 [2]: 7.29 µM
